Laboratory results as given in patent publication US6689814B1, “Use of dialkyldialkylammonium halide for the preparation of a virucidal medicament intended to be administered by the systemic route” (priority 1998, dated 2004).
Values joined by “and” are separate entries in the source; they are usually repeats but may differ in a detail not shown here. Equal entries are not always repeated.

Key:
[1] = system: Herpesvirus simplex; assay: Example 2: Herpes simplex nasal infection of mice, Bardac intraperitoneal, 6-day monitoring and lung infectious titer; assay type: in vivo
Procedure: (§1) A test similar to the one described in Example 1 was carried out using two groups of 17 mice, one Herpesvirus simplex batch having a titer of 2×10^2 PFU/ml, by inoculating a Bardac® dose of 0.018 mg by injection (that is to say a daily-dose of 0.036 mg) and following the protocol below: on day D0, Bardac® is injected and, 12 hours later, nasal instillation of the virus is carried out, followed by intraperitoneal injections of Bardac® every twelve hours. Monitoring was carried out twice per day for six days.
(§2) At the end of the monitoring period, the lungs of the animals in the two groups were collected for culturing, in order to detect the presence of the virus. Detection of the virus is carried out as follows: the lung is homogenized in a DOUNCE® mixer and then suspended in a sterile test tube and centrifuged for 10 minutes at 2000 rpm. If the sample is not analyzed immediately, it is stored at −80° C. The infectious titer of the lung is given by titrating the virions present in 0.3 ml of centrifugation supernatant and multiplying the number of PFU by ten.

[2] = mouse, according to the manufacturer (LONZA); cited from earlier work
[3] = system: Herpesvirus simplex; assay: Example 3: protocol of Example 2 with two batches of 52 animals; assay type: in vivo, mice
Procedure: as §1, §2
The protocol followed is identical to that of Example 2 with two batches of 52 animals.

[4] = system: Herpesvirus simplex; assay: Example 1: Herpes simplex nasal infection of Nude mice, Bardac intraperitoneal, 14-day monitoring; assay type: in vivo, nu/nu Nude mice; conditions: 0.025 mg i.p. twice a day
Description: Three-week-old female nu/nu Nude mice, having an average weight of 6 to 8 g, divided into two batches of 20 animals, a control group receiving only the virus (curve -x- in FIG. 1), and one group being treated with Bardac® (curve -●- in FIG. 1).
Herpesvirus simplex batch having a titer of 10′ PFU (Plaque Forming Units)/ml.
Didecyldimethylammonium chloride (Bardac®) provided by the Swiss company Lonza and used in the form of a dilution in an isotonic saline solution.
Inoculation of the virus: 30 μl by the nasal route of pure viral suspension, which corresponds to an installation of about 10^4 PFU (viral load). The inoculation is carried out according to the protocol described by KERN et al. in Antiviral Res., 1986, 6, 189-195. One mouse died during the nasal instillation.
Bardac®: inoculation by the intraperitoneal route, twice a day of a dose of 0.025 mg of the product by injection, i.e. a daily dose of 0.050 mg. According to the manufacturer (LONZA), the LD50 by the intravenous route is about 0.20 mg/10 g of mouse.
On day D0, Bardac® is injected in the morning, and 4 hours later nasal instillation of the virus is carried out, followed 6 hours later by the second injection of Bardac®; on the following days, the injections were carried out around 9 am and 5 pm.

CCCCCCCCCC[N+](C)(C)CCCCCCCCCC.[Cl-] [Bardac®, didecyldimethylammonium chloride]
infectious titer in the lung, individual treated mouse ([1]; mouse alive at D6): 0 PFU (7×) and 20 PFU (2×) and 100 PFU
infectious titer in the lung, individual treated mouse ([1]; mouse dead at D5): 0 PFU
infectious titer in the lung, individual treated mouse ([1]; mouse dead at D6): 0 PFU (2×) and 20 PFU and 150 PFU and 50 PFU and 200 PFU
total infectious titer in the lungs ([1]; sum over the 17 treated mice, control >3200): 560 PFU
percentage of survivals on day D6 ([1]; treated group of 17 mice, 0.018 mg i.p. every twelve hours, control 29%): 59%
mice alive on day D6 ([1]; treated group of 17 mice, 0.018 mg i.p. every twelve hours, control five): ten
number of infected mice ([1]; treated group of 17 mice, control 15): 7
percentage of mice infected ([1]; treated group of 17 mice, control 88%): 41%
effect on mortality and infectious titer (in words) ([1]; treated group versus control group): less affected by the virus
LD50 by the intravenous route [2]: about 0.20 mg/10 g of mouse
infectious titer in the lung, individual infected treated mouse ([3]; mouse alive at D6): > 1000 PFU (2×) and 20 PFU (2×) and 120 PFU and 250 PFU and 80 PFU
infectious titer in the lung, individual infected treated mouse ([3]; mouse dead at D3): > 1000 PFU and 50 PFU
infectious titer in the lung, individual infected treated mouse ([3]; mouse dead at D5): 300 PFU and 160 PFU and 50 PFU and 40 PFU
total infectious titer ([3]; sum over the 13 infected treated mice, control >11930): >4100 PFU
factor by which the infectious titer (in PFU) is reduced ([3]; treated animals versus control group, overall): 3
number of live mice on the sixth day ([3]; treated group of 52 mice, control 22): 39
number of mice infected with the virus ([3]; treated group of 52 mice, control 37): 13
percentage of survivors on the sixth day ([3]; treated group of 52 mice, control 42%): 75%
percentage of mice infected with the virus ([3]; treated group of 52 mice, control 71%): 25%
percentage of survivals ([4]; treated group of 20 mice, about 10^4 PFU nasal, 14 days monitoring, control 10%): 45%
average duration of the disease ([4]; treated group, control 8.5 days): 9.2 days
